This is an account of results in PubChem BioAssay (NCI).

“And” between values parts separate entries of the source, which are not always exact repeats. Equal values may be shown once.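 48-hour exposure; five concentrations; linearly interpolated endpoints. GI50 marks 50% less growth. TGI is the concentration that stops growth completely.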 Numbered stars: 1 amine (or outer) side, 2 acyl side, 3 side chain; on linkers, the order of the positions; unused ones are H or OH. *1 amine or outer side, *2 acyl side, *3 side chain or, on linkers, in order; H or OH if unused. Bridge positions count the residues as written; N and C are the ends. Where a SMILES comes first, the peptide text is derived from it. Square brackets hold non-standard residues; d marks the D form. Peptide text beside a SMILES is read from it. I, II: the chains in the order shown. [ ]: non-standard residue; d: D form. The star is where a group is joined. Actinocin(9to1) = Cc1c2oc3c(C)ccc(C(=O)[*:1])c3nc-2c(C(=O)[*:2])c(N)c1=O; X11 = C/C=C/CC(C)C(O)[C@H](N[*:1])C(=O)[*:2]; aThr = C[C@H](O)[C@H](N)C(=O)O; NMeV = CN[C@H](C(=O)O)C(C)C; Decanoyl = CCCCCCCCCC(=O)*; Leu(ol) = CC(C)C[C@H](N)CO; Aib = CC(C)(N)C(=O)O; Sar = CNCC(=O)O Bounds are passed on as bounds.

This assay concerns MDA-MB-468 breast. Description: NCI tumour cell line growth inhibition, 48 h.
Turning to `C=CC(=O)N1CCC[C@@H](n2nc(-c3ccc(Oc4ccccc4)cc3)c3c(N)ncnc32)C1`, the GI50 was 67.4 nM and the TGI is 1240 nM.

As for `COc1c(B(O)O)cccc1-c1nc2c(F)cc3n[nH]c(C)c3c2c2c1CCCC2`, the GI50 is 994 nM and the TGI turned out to be 4120 nM.

For `CCCCCCCCCCCCCCCCCC[S+](C)CC` (configuration not stated), the GI50 was 527 nM and the TGI stood at 2660 nM.

For the compound `CC[C@@]1(O)C(=O)OCc2c1cc1n(c2=O)Cc2c-1nc1cc(F)c(C)c3c1c2[C@@H](NC(=O)CO)CC3`, the GI50 was < 10 nM and the TGI was < 10 nM.

As to `O=C(/C=C/C=C/c1ccc2c(c1)OCO2)N/N=C\c1ccc(O)cc1O`, the GI50 was 1660 nM and the TGI was 5730 nM.

Consider `Cc1cc(C)c2c(c1)N(C)c1ncnc(-n3cnc4cc(C)ccc43)c1CC2C` (configuration not stated), for which the GI50 was 3240 nM and the TGI was found to be 27000 nM.

Take `NC1(C(=O)N[C@@H](CCO)c2ccc(Cl)cc2)CCN(c2ncnc3[nH]ccc23)CC1`: the GI50 is 128 nM and 162 nM; the TGI was 1170 nM and 2210 nM.

With `C/C=C/CC(C)C(O)[C@H](NC(=O)[C@@H]1CCCN1C(=O)C(C)(C)NC(=O)CCCCCCCCC)C(=O)NC(C)(C)C(=O)N[C@@H](CCC(N)=O)C(=O)N[C@H](CCC(N)=O)C(=O)NC(C)(C)C(=O)NC(C)(C)C(=O)N[C@@H](CCC(N)=O)C(=O)N[C@H](CC(C)C)C(=O)N[C@H](CO)CC(C)C` (stereo partly drawn) (Decanoyl-[Aib]P[X11][Aib]Q[dQ][Aib][Aib]Q[dL][Leu(ol)]), the GI50 is 1490 nM and the TGI was determined as 2980 nM.

Regarding `CCN(CC)CC(O)c1cc(-c2ccc(Cl)cc2)nc2c(C)c(Cl)ccc12` (configuration not stated), the GI50 is 1890 nM and the TGI was 3420 nM.

For `CC/C(=C(/c1ccc(OCCN(C)C)cc1)c1ccc(OC(=O)CCCCCCCCC(=O)c2c(C)[nH]c(/C=C3\N=C(c4ccc[nH]4)C=C3OC)c2C)cc1)c1ccccc1`, the GI50 is 3620 nM and the TGI is > 100000 nM.

As to `COc1cc(N2CCC(N)CC2)ccc1Nc1ncc(Cl)c(-c2c[nH]c3ccccc23)n1`, the GI50 was 415 nM and the TGI worked out at 1740 nM.

Consider `CC[C@@H](C)/C=C(C)/C=C/C(=O)c1c(O)c(-c2ccc(O)cc2)cn(OC2CC(=O)CCC(C)OC(=O)CC2O)c1=O` (some centres not stated), for which the GI50 was 239 nM and the TGI was 852 nM.

On to `O=C1OCC2=C1C(c1cccc(Cl)c1)c1cc3c(cc1N2CCO)CCC3` (configuration not stated), for which the GI50 was 23.1 nM and the TGI was found to be 840 nM.

For the compound `Nc1c(C(=O)Nc2cccc(C(F)(F)F)c2)sc2nc3c(cc12)CCCCCC3`, the GI50 is 798 nM and the TGI was found to be 3320 nM.

Turning to `Cn1c(=O)c(Oc2ccc(F)cc2F)cc2cnc(NCC(C)(C)O)nc21`, the GI50 is > 25000 nM and the TGI is > 25000 nM.

`CN(C)C1CN(C(=O)c2cc(-c3ccc4ncnc(N5CCc6cc(F)c(Cl)cc65)c4c3)cnc2N)C1`: the GI50 was 254 nM and the TGI is 1070 nM.

Take `CCc1ccc(SC2c3ccc(N(CC)CC)cc3Oc3nc(N)c(C#N)c(N)c32)cc1` (configuration not stated): the GI50 is 1580 nM and the TGI worked out at 3060 nM.

For the compound `COc1cc(C)[nH]c(=O)c1CNC(=O)c1c(C)n([C@H](C)C2CCN(CC(F)(F)F)CC2)c2ccccc12`, the GI50 is 24900 nM and the TGI was > 100000 nM.

For the compound `Nc1nc(N)c2c(n1)CCC(S(=O)(=O)c1ccc3ccccc3c1)C2` (configuration not stated), the GI50 was 2250 nM and the TGI stood at 33000 nM.

Turning to `CO/C(=C1/NC(=O)C(Cc2ccc(O)c(Br)c2)N(C)C(=O)C(C)NC(=O)CCC/C=C(\C)CCC(C)OC1=O)c1ccccc1` (configuration not stated), the GI50 is 21.7 nM.

For `CCCCCCCCCCCCCCCCCCOc1ccccc1COP(=O)(O)OOCC[N+](C)(C)C`, the GI50 was 493 nM and the TGI was 1470 nM.

As for `Fc1ccc(Nc2nc3nonc3nc2Nc2ccc(I)cc2)cc1`, the GI50 is 251 nM and the TGI came to 790 nM.

Turning to `CC(=O)Nc1cc2c3c(cccc3c1)-c1ccccc1-2`, the GI50 is 37400 nM and the TGI was > 100000 nM.

Take `C[C@]12CC[C@H]3[C@@H](CC[C@]4(O)C[C@@H](O[C@@H]5O[C@H](CO)[C@@H](O[C@@H]6OC[C@@H](O)[C@H](O)[C@H]6O)[C@H](O)[C@H]5O)CC[C@]34C=O)[C@@]1(O)CC[C@@H]2C1=CC(=O)OC1`: the GI50 is 10000 nM and the TGI was 32300 nM.

As for `CN1CCN(Cc2ccc(NC(=O)c3cncc(C#Cc4cnc5ccc(N)nn45)c3)cc2C(F)(F)F)CC1`, the GI50 is 852 nM and the TGI was found to be 3240 nM.

`Cc1cc(-c2cc(OC(=O)c3ccccc3)ccc2Cl)cc2nnc(Nc3ccc(OCCN4CCCC4)cc3)nc12`: the GI50 is 1320 nM and the TGI was found to be 2910 nM.

Turning to `Nc1ncnc2c1ccn2-c1cccc(NC(=O)c2ccc(N3CCOCC3)c(C(F)(F)F)c2)c1`, the GI50 is 2130 nM and the TGI amounted to 7070 nM.

Take `COc1cc(C2CC(c3cccc(Nc4ccnc5cc(Cl)ccc45)c3)=NN2c2ccccc2)cc(OC)c1OC` (configuration not stated): the GI50 was 20100 nM and the TGI is > 100000 nM.

For the compound `COc1cc(N(CCCl)CCCl)ccc1/C=N\NC(=O)c1cccnc1`, the GI50 was 1280 nM and the TGI is 6830 nM.

As for `Cc1c2oc3c(C)ccc(C(=O)N[C@@H]4C(=O)N[C@H](C(C)C)C(=O)N5CCC[C@H]5C(=O)N(C)CC(=O)N(C)[C@@H](C(C)C)C(=O)O[C@H]4C)c3nc-2c(C(=O)N[C@@H]2C(=O)N[C@H](C(C)C)C(=O)N3CCC[C@H]3C(=O)N(C)CC(=O)N(C)[C@@H](C(C)C)C(=O)O[C@H]2C)c(N)c1=O` (I: [aThr][dV]P[Sar][NMeV] / II: [aThr][dV]P[Sar][NMeV]; ester I:1-I:C, II:1-II:C; linker I:N-II:N via Actinocin(9to1)), the TGI is 48.5 nM and 15.7 nM.

Turning to `CN1CCN(Cc2ccc(NC(=O)c3cncc(C#Cc4cnc5ccc(OCCCS(C)(=O)=O)nn45)c3)cc2C(F)(F)F)CC1`, the GI50 was 684 nM and the TGI was found to be 1680 nM.

As for `CC(=O)ON=C1C=CC(=C(C#N)c2ccccc2)C=C1`, the GI50 was 420 nM and the TGI came out at 12500 nM.

`Nc1n[nH]c2ccc([C@@H]3Nc4ccc5cn[nH]c5c4[C@H]4C5CCC(C5)[C@@H]34)cc12` (some centres not stated): the GI50 was 330 nM and the TGI amounted to 5040 nM.

Consider `COC(=O)c1c2c(c(C)[n+]([O-])c1C)C(=O)C(NCc1ccc(O)cc1)=CC2=O`, for which the GI50 was 402 nM and the TGI turned out to be 1740 nM.

As to `COc1cc(C(=O)NN=C2c3ccccc3-c3ccccc32)cc(OC)c1OC`, the GI50 was 3470 nM and the TGI was 41900 nM.

Regarding `CN1CCN(CCC=C2c3ccccc3Sc3ccc(S(=O)(=O)N(C)C)cc32)CC1`, the GI50 is 1380 nM and 1530 nM; the TGI is 2970 nM and 4260 nM.

`CCN1C(=O)N(CC)C2SC(N/N=C/c3cccs3)=NC21` (configuration not stated): the GI50 was 253 nM and the TGI came out at 16600 nM.

Take `O=C(Nc1cccc(-n2cc(-c3ccncc3)c(-c3ccc(Cl)c(O)c3)n2)c1)Nc1ccc(Cl)c(Cl)c1`: the GI50 was 729 nM and the TGI turned out to be 4250 nM.

With `COC(=O)[C@]12CC[C@@H](C)[C@H](C)[C@@H]1C1=CC[C@@H]3[C@@](C)(CC#N)C4=C(C[C@@]3(C)[C@]1(C)CC2)OC[C@]4(C)C=O`, the GI50 is 10700 nM and the TGI came to 42300 nM.

As to `Cc1cnc(-c2ccc(-c3ccc(NC(=O)Nc4c(F)cc(F)cc4F)cc3F)c3c2C(=O)NC3)[nH]1`, the GI50 is 1480 nM and the TGI was determined as 3860 nM.

Turning to `COCCn1c2c([n+](Cc3cnccn3)c1C)C(=O)c1ccccc1C2=O`, the GI50 was < 10 nM and the TGI is 14.1 nM.

As to `CN1CCN(Cc2ccc(NC(=O)c3cncc(C#Cc4cnc5ccc(N6CCOCC6)nn45)c3)cc2C(F)(F)F)CC1`, the GI50 was 73.5 nM and the TGI was 165 nM.

With `CC(=O)N[C@@H](Cc1ccc(OP(=O)(O)O)cc1)C(=O)N[C@H]1CCC(=O)N2CCC[C@@H](C(=O)NC3CCc4ccccc43)N2C1=O` (some centres not stated), the GI50 was > 25000 nM and the TGI is > 25000 nM.

In the case of `C#CCNC(=O)CC[C@@H](C)[C@H]1CC[C@H]2[C@@H]3CC[C@@H]4CC(=O)CC[C@]4(C)[C@H]3CC[C@]12C`, the GI50 was 13800 nM and the TGI turned out to be 45400 nM.

Turning to `COC(=O)Nc1nc2ccc(C(=O)c3ccc(F)cc3)cc2[nH]1`, the GI50 is 812 nM and the TGI is > 100000 nM.

For `COc1ccc(/C=C\c2cc(OC)c(OC)c(OC)c2)c(NS(=O)(=O)c2ccc(F)cc2)c1O`, the GI50 is 69.2 nM.

In the case of `CCCCOC(=O)c1c(C)[nH]c(/C=C2\N=C(c3ccc[nH]3)C=C2OC)c1C`, the GI50 is 451 nM and the TGI came out at 2020 nM.

For the compound `O=C1c2ccc3c4c(ccc(c24)C(=O)N1CCNCc1ccccc1)C(=O)N(CCNCc1ccccc1)C3=O`, the GI50 is 1590 nM and the TGI amounted to 3100 nM.

For `COc1ncc(-c2ccc3nccc(C#CCCCCC(=O)NO)c3c2)cc1NS(=O)(=O)c1ccc(F)cc1F`, the GI50 is 21.4 nM and the TGI came out at 116 nM.

With `CN(C)CCCCNc1ccc(NCCCCN(C)C)c2c1C(=O)c1c(O)ccc(O)c1C2=O`, the GI50 is 13700 nM and the TGI came out at 26500 nM.
